ChEMBL document CHEMBL3875162, “Synthesis and biological evaluation of new benzimidazole-thiazolidinedione hybrids as potential cytotoxic and apoptosis inducing agents” (Eur J Med Chem, 2016)
Activity calls are given as the source filed them. No cut-off for these calls is given here.

Experiments:
A549 [1] = test: Induction of apoptosis in human A549 cells assessed as necrotic cells at 15 uM after 24 hrs by Annexin V-FITC/propidium iodide staining based flow cytometry (reference value: 2.3%); type: functional
[2] = Cytotoxicity against human DU145 cells assessed as cell growth inhibition after 48 hrs by MTT assay; type: functional, cell-based; conditions: DU-145, 48 h
A549 [3] = test: Induction of mitochondrial membrane potential loss in human A549 cells at 15 uM after 24 hrs by rhodamine-123 staining based flow cytometry relative to control; type: functional
[4] = Cytotoxicity against human MDA-MB-231 cells assessed as cell growth inhibition after 48 hrs by MTT assay; type: functional, cell-based; conditions: MDA-MB-231, 48 h
A549 [5] = test: Induction of apoptosis in human A549 cells assessed as viable cells at 5 uM after 24 hrs by Annexin V-FITC/propidium iodide staining based flow cytometry (reference value: 94%); type: functional; conditions: A549, 24 h, read-out: Activity
[6] = Cell cycle arrest in human A549 cells assessed as accumulation at G2/M phase at 15 uM after 24 hrs by propidium iodide staining-based flow cytometry (reference value: 23.3%); type: functional
A549 [7] = test: Induction of apoptosis in human A549 cells assessed as pyknosis at 5 to 15 uM after 24 hrs by DAPI staining based fluorescence microscopic method; type: functional, cell-based
A549 [8] = test: Induction of apoptosis in human A549 cells assessed as late apoptotic cells at 5 uM after 24 hrs by Annexin V-FITC/propidium iodide staining based flow cytometry (reference value: 0.8%); type: functional
A549 [9] = test: Induction of apoptosis in human A549 cells assessed as nucleus fragmentation at 5 to 15 uM after 24 hrs by DAPI staining based fluorescence microscopic method; type: functional, cell-based
A549 [10] = test: Induction of mitochondrial membrane potential loss in human A549 cells at 5 uM after 24 hrs by rhodamine-123 staining based flow cytometry relative to control; type: functional
A549 [11] = test: Induction of apoptosis in human A549 cells assessed as early apoptotic cells at 15 uM after 24 hrs by Annexin V-FITC/propidium iodide staining based flow cytometry (reference value: 2.6%); type: functional
A549 [12] = test: Induction of apoptosis in human A549 cells assessed as early apoptotic cells at 10 uM after 24 hrs by Annexin V-FITC/propidium iodide staining based flow cytometry (reference value: 2.6%); type: functional
A549 [13] = test: Induction of apoptosis in human A549 cells assessed as condensation of chromatin at 5 uM after 24 hrs by acridine orange/ethidium bromide-dual staining based fluorescence microscopic method; type: functional, cell-based
A549 [14] = test: Induction of apoptosis in human A549 cells assessed as chromatin condensation at 5 to 15 uM after 24 hrs by DAPI staining based fluorescence microscopic method; type: functional, cell-based
A549 [15] = test: Induction of apoptosis in human A549 cells assessed as viable cells at 15 uM after 24 hrs by Annexin V-FITC/propidium iodide staining based flow cytometry (reference value: 94%); type: functional; conditions: A549, 24 h, read-out: Activity
A549 [16] = test: Induction of apoptosis in human A549 cells assessed as viable cells at 10 uM after 24 hrs by Annexin V-FITC/propidium iodide staining based flow cytometry (reference value: 94%); type: functional; conditions: A549, 24 h, read-out: Activity
A549 [17] = test: Induction of apoptosis in human A549 cells assessed as destructive fragmentation of nucleus forming horse-shoe shaped structure at 10 to 15 uM after 24 hrs by acridine orange/ethidium bromide-dual staining based fluorescence microscopic method; type: functional, cell-based
A549 [18] = test: Induction of morphological changes in human A549 cells assessed as […] at 5 to 15 uM after 24 hrs by phase contrast microscopic method; type: functional, cell-based
[19] = Antimigratory activity in human A549 cells assessed as cell migration at 10 uM after 24 hrs by phase contrast microscopy-based wound healing assay relative to control; type: functional
A549 [20] = test: Induction of apoptosis in human A549 cells after 24 hrs by Annexin V-FITC/propidium iodide staining based flow cytometry; type: functional, cell-based
[21] = Induction of apoptosis in human A549 cells assessed as irregular distribution of chromatin at 10 to 15 uM after 24 hrs by acridine orange/ethidium bromide-dual staining based fluorescence microscopic method; type: functional, cell-based
[22] = Antimigratory activity in human A549 cells assessed as cell migration at 15 uM after 24 hrs by phase contrast microscopy-based wound healing assay relative to control; type: functional
[23] = Cell cycle arrest in human A549 cells assessed as accumulation at G0/G1 phase at 5 uM after 24 hrs by propidium iodide staining-based flow cytometry (reference value: 66.6%); type: functional
A549 [24] = test: Induction of apoptosis in human A549 cells assessed as necrotic cells at 5 uM after 24 hrs by Annexin V-FITC/propidium iodide staining based flow cytometry (reference value: 2.3%); type: functional
[25] = Cell cycle arrest in human A549 cells assessed as accumulation at S phase at 5 uM after 24 hrs by propidium iodide staining-based flow cytometry (reference value: 11.5%); type: functional
[26] = Cell cycle arrest in human A549 cells assessed as accumulation at S phase at 10 uM after 24 hrs by propidium iodide staining-based flow cytometry (reference value: 11.5%); type: functional
[27] = Cell cycle arrest in human A549 cells assessed as accumulation at S phase at 15 uM after 24 hrs by propidium iodide staining-based flow cytometry (reference value: 11.5%); type: functional
[28] = Cell cycle arrest in human A549 cells assessed as accumulation at G2/M phase at 5 uM after 24 hrs by propidium iodide staining-based flow cytometry (reference value: 23.3%); type: functional
A549 [29] = test: Induction of morphological changes in human A549 cells assessed as cell shrinkage at 5 to 15 uM after 24 hrs by phase contrast microscopic method; type: functional, cell-based
A549 [30] = test: Induction of apoptosis in human A549 cells assessed as apoptotic body formation at 10 to 15 uM after 24 hrs by acridine orange/ethidium bromide-dual staining based fluorescence microscopic method; type: functional, cell-based
A549 [31] = test: Induction of apoptosis in human A549 cells assessed as decrease in cell viability at 5 to 15 uM after 24 hrs by phase contrast microscopic method; type: functional, cell-based
A549 [32] = test: Induction of apoptosis in human A549 cells assessed as early apoptotic cells at 5 uM after 24 hrs by Annexin V-FITC/propidium iodide staining based flow cytometry (reference value: 2.6%); type: functional
[33] = Cell cycle arrest in human A549 cells assessed as decrease in cell levels at G0/G1 phase after 24 hrs by propidium iodide staining-based flow cytometry; type: functional
A549 [34] = test: Induction of apoptosis in human A549 cells assessed as cell membrane blebbing at 5 uM after 24 hrs by acridine orange/ethidium bromide-dual staining based fluorescence microscopic method; type: functional
[35] = Antimigratory activity in human A549 cells assessed as cell migration at 15 uM after 48 hrs by phase contrast microscopy-based wound healing assay relative to control; type: functional
[36] = Antimigratory activity in human A549 cells assessed as cell migration at 5 uM after 24 hrs by phase contrast microscopy-based wound healing assay relative to control; type: functional
A549 [37] = test: Induction of apoptosis in human A549 cells assessed as increase in superoxide production after 24 to 48 hrs by mitoSOX red-probe based fluorescence microscopic method; type: functional, cell-based
A549 [38] = test: Induction of apoptosis in human A549 cells assessed as appearance of horse-shoe shaped nucleus at 5 to 15 uM after 24 hrs by DAPI staining based fluorescence microscopic method; type: functional, cell-based

SMILES: Cn1c(/C=C2\SC(=O)N(CC(=O)Nc3nc(-c4ccccc4)cs3)C2=O)nc2ccccc21
- Activity (A549 [1]): 2.5%
- IC50 [2]: 31.4 µM
- Activity (A549 [3]): 45.8%
- IC50 [4]: 29.2 µM
- viability at 5 µM (A549 [5]): 80.5%
- Activity [6]: 57.8%
- Activity (A549 [7]): Active
- Activity (A549 [8]): 6.2%
- Activity (A549 [9]): Active
- Activity (A549 [10]): 24.6%
- Activity (A549 [11]): 19.4%
- Activity (A549 [12]): 15.8%
- Activity (A549 [13]): Active
- Activity (A549 [14]): Active
- viability at 15 µM (A549 [15]): 66.8%
- viability at 10 µM (A549 [16]): 73.3%
- Activity (A549 [17]): Active
- Activity (A549 [18]): Active
- Activity [19]: 74.3%
- Activity (A549 [20]): Dose-dependent effect
- Activity [21]: Active
- Activity [22]: 60.4%
- Activity [23]: 48.9%
- Activity (A549 [24]): 0.6%
- Activity [25]: 11.4%
- Activity [26]: 7.9%
- Activity [27]: 13.5%
- Activity [28]: 41.4%
- Activity (A549 [29]): Active
- Activity (A549 [30]): Active
- Activity (A549 [31]): Active
- Activity (A549 [32]): 12.8%
- Activity [33]: Dose-dependent effect
- Activity (A549 [34]): Active
- Activity [35]: 29.6%
- Activity [36]: 77.8%
- Activity (A549 [37]): Dose-dependent effect
- Activity (A549 [38]): Active
